27 molecules from patent publication US10287269B2, “Pyrazolyl pyrimidinone compounds as PDE2 inhibitors” (Merck Sharp & Dohme Corp., priority 2015, dated 2019) can be followed below.

In this test the target is T1, human PDE2A1 (Homo sapiens, UniProt O00408).
T1 construct: GST; purchased BPS Bioscience (San Diego, Calif.) 60020; host or cells: insect cells
In words: PDE2 IMAP FP inhibition assay, human enzyme (PDE selectivity panel format). In kind it is biochemical. The protocol:
Selectivity for PDE2, as compared to other PDE families, was assessed using the IMAP® technology. Human PDE10A2 enzyme was prepared from cytosolic fractions of transiently transfected HEK cells. All other PDE's were GST Tag human enzyme expressed in insect cells and were obtained from BPS Bioscience (San Diego, Calif.): PDE1A (Cat#60010), human PDE2A1 (Cat#60020), PDE3A (Cat#60030), PDE4A1A (Cat#60040), PDE5A1 (Cat#60050), PDE6C (Cat#60060), PDE7A (Cat#60070), PDE8A1 (Cat#60080), PDE9A2 (Cat#60090), PDE11A4 (Cat#60110).
Assays for PDE 1 through 11 were performed in parallel at room temperature in 384-well microtiter plates with an incubation volume of 20.2 μL. Solutions of test compounds were prepared in DMSO and serially diluted with DMSO to yield 30 μL of each of ten solutions differing by 3-fold in concentration, at 32 serial dilutions per plate. […] A Labcyte POD 810 (Labcyte, Sunnyvale, Calif.) was used to dispense 200 nL from each well of the titration plate to make eleven copies of the assay plate for each titration, one copy for each PDE enzyme. A solution of each enzyme (dilution from aliquots, sufficient to produce 20% substrate conversion) and a separate solution of FAM-labeled cAMP or FAM-labeled cGMP from Molecular Devices (Sunnyvale, Calif., product # R7506 or cGMP#R7508), at a final concentration of 50 nM were made in the assay buffer (10 mM Tris HCl, pH 7.2, 10 mM MgCl2, 0.05% NaN3 0.01% Tween-20, and 1 mM DTT). Note that the substrate for PDE2 is 50 nM FAM cAMP containing 1000 nM of cGMP. The enzyme and the substrate were then added to the assay plates in two consecutive additions of 10 μL and then shaken to mix. The reaction was allowed to proceed at room temperature for 60 minutes. A binding solution was then made from the kit components, comprised of 80% Solution A, 20% Solution B and binding reagent at a volume of 1/600 the total binding solution. The enzymatic reaction was stopped by addition of 60 μL of the binding solution to each well of the assay plate. The plates were sealed and shaken for 10 seconds. The plates were incubated at room temperature for one hour, then the parallel and perpendicular fluorescence was measured using a Tecan Genios Pro plate reader (Tecan, Switzerland). The apparent inhibition constants for the compounds against all 11 PDE's was determined from the parallel and perpendicular fluorescent readings as described for PDE10 FP assay using the following apparent KM values for each enzyme and substrate combination: PDE1A (FAM cGMP) 70 nM, human PDE2A1 (FAM cAMP) 10,000 nM, PDE3A (FAM cAMP) 50 nM, PDE4A1A (FAM cAMP) 1500 nM, PDE5A1 (FAM cGMP) 400 nM, PDE6C (FAM cGMP) 700 nM, PDE7A (FAM cAMP) 150 nM, PDE8A1 (FAM cAMP) 50 nM, PDE9A2 (FAM cGMP) 60 nM, PDE10A2 (FAM cAMP) 150 nM, PDE11A4 (FAM cAMP) 1000 nM. The intrinsic PDE2 inhibitory activity of a compound which may be used in accordance with the present invention may be determined by these assays. […]

The mark [1] stands for this setting: Lab A, read-out: Human PDE2 Ki (nM) Lab A.
Where [2] appears, read: Lab B, read-out: Human PDE2 Ki (nM) Lab B.

Like-named read-outs stand apart in the source and are kept apart here.

T1 sequence (O00408 1-920 isoform O00408-2): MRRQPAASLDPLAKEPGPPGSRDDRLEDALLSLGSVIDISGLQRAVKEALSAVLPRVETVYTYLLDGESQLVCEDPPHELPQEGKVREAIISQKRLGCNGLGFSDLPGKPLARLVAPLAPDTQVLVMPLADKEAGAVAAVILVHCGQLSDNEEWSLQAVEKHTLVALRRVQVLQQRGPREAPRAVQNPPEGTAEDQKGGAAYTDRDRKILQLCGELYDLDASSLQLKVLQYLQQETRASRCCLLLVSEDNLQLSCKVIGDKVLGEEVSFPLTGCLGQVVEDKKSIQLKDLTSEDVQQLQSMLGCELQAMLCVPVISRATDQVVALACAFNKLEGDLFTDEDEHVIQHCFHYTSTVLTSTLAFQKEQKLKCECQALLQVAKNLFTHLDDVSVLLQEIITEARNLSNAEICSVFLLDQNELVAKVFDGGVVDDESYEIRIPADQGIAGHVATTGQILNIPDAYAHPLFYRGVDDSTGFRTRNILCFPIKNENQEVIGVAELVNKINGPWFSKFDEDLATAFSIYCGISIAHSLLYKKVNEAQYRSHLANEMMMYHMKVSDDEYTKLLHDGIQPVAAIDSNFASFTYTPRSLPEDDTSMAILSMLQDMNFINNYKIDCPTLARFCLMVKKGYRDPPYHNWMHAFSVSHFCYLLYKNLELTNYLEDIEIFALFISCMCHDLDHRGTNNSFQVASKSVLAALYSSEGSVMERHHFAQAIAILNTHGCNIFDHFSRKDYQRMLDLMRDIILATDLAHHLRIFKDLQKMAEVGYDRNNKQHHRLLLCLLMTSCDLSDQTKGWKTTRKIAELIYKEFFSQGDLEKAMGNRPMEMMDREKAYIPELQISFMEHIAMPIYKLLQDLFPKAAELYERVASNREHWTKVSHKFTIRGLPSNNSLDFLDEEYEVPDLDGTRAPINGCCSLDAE

Usually Ki stands for a dissociation constant, usually derived from enzyme kinetics or from competition with a known ligand. For the molecule `COc1cc(C(F)(F)F)ccc1[C@@H](C)n1cc(-c2cc(=O)[nH]c(C)n2)cn1` (single isomer, unassigned) [Example 2], the Ki reads like this: under setting [1], 41.5 nM; under setting [2], 17.1 nM.

For `Cc1nc(-n2cc([C@H](C)c3ccc(C(F)(F)F)cc3)cn2)cc(=O)[nH]1` (single isomer, unassigned) [Example 3], the Ki under setting [2] was found to be 40.3 nM.

As for `Cc1nc(-n2cc([C@H](C)c3ccc(C(F)(F)F)cc3)cn2)cc(=O)[nH]1` (single isomer, unassigned) [Example 4], the inhibition constant (Ki) under setting [1] was 18.2 nM and the Ki under setting [2] was determined as 14.4 nM.

With `Cc1nc(-n2ccc([C@H](C)c3ccc(C(F)(F)F)cc3)n2)cc(=O)[nH]1` (single isomer, unassigned) [Example 5], the Ki under setting [2] amounted to 174 nM.

Regarding `Cc1nc(-n2ccc([C@H](C)c3ccc(C(F)(F)F)cc3)n2)cc(=O)[nH]1` (single isomer, unassigned) [Example 6], under setting [2], the Ki came to 241 nM.

Turning to `Cc1nc(-n2cc([C@](C)(O)c3ccc(C(F)(F)F)cc3F)cn2)cc(=O)[nH]1` (single isomer, unassigned) [Example 15], under setting [2], the Ki was found to be 11.7 nM.

`Cc1nc(-n2cc([C@](C)(O)c3ccc(C(F)(F)F)cc3F)cn2)cc(=O)[nH]1` (single isomer, unassigned) [Example 16]: the Ki under setting [2] turned out to be 47.1 nM.

In the case of `Cc1nc(-n2cc([C@H](CO)c3ccc(C(F)(F)F)cc3F)cn2)cc(=O)[nH]1` (single isomer, unassigned) [Example 19], the Ki under setting [2] came to 85 nM.

As for `Cc1nc(-n2cc([C@H](CO)c3ccc(C(F)(F)F)cc3F)cn2)cc(=O)[nH]1` (single isomer, unassigned) [Example 20], the Ki reads like this: under setting [1], 32.3 nM; under setting [2], 16.8 nM.

With `Cc1nc(-n2cc([C@]3(c4ccc(C(F)(F)F)cc4)CCCO3)cn2)cc(=O)[nH]1` (single isomer, unassigned) [Example 21], under setting [2], the Ki came out at 199 nM.

As for `Cc1nc(-n2cc([C@]3(c4ccc(C(F)(F)F)cc4)CCCO3)cn2)cc(=O)[nH]1` (single isomer, unassigned) [Example 22], under setting [2], the Ki is 31.5 nM.

As to `Cc1nc(-c2cc([C@H](C)c3ccc(C(F)(F)F)cc3)[nH]n2)cc(=O)[nH]1` (single isomer, unassigned) [Example 23], under setting [2], the Ki turned out to be 19.4 nM.

As for `Cc1nc(-c2cc([C@H](C)c3ccc(C(F)(F)F)cc3)[nH]n2)cc(=O)[nH]1` (single isomer, unassigned) [Example 24], the Ki under setting [2] was 81 nM.

As for `Cc1nc(-n2cc(C3(C)OCc4cc(C(F)(F)F)ccc43)cn2)cc(=O)[nH]1` (single isomer, unassigned) [Example 27], the Ki under setting [2] is 66.6 nM.

Regarding `Cc1nc(-n2cc(C3(C)OCc4cc(C(F)(F)F)ccc43)cn2)cc(=O)[nH]1` (single isomer, unassigned) [Example 28], the Ki under setting [2] was 72 nM.

With `Cc1nc(-n2cc(C(C)c3ccc(C(F)(F)F)cc3F)cn2)cc(=O)[nH]1` (single isomer, unassigned) [Example 52, (R)- or (S)-6-(4-(1-(2-fluoro-4-(trifluoromethyl)phenyl)ethyl)-1H-pyrazol-1-yl)-2-methylpyrimidin-4(3H)-one], the Ki is 12.3 nM under setting [1] and 4.9 nM under setting [2].

On to `Cc1nc(-n2cc(C(C)c3ccc(C(F)(F)F)cc3F)cn2)cc(=O)[nH]1` (single isomer, unassigned) [Example 53, (S)- or (R)-6-(4-(1-(2-fluoro-4-(trifluoromethyl)phenyl)ethyl)-1H-pyrazol-1-yl)-2-methylpyrimidin-4(3H)-one], for which the Ki under setting [2] was 33.2 nM.

Turning to `Cc1nc(-c2cnn(C(C)c3ccc(C(F)(F)F)cc3C)c2)cc(=O)[nH]1` (single isomer, unassigned) [Example 57, (S)- or (R)-2-methyl-6-(1-(1-(2-methyl-4-(trifluoromethyl)phenyl)ethyl)-1H-pyrazol-4-yl)pyrimidin-4(3H)-one], the Ki by setting is: under setting [1], 16.4 nM; under setting [2], 6.8 nM.

`COc1ccc(Cc2nc(-c3cnn(C(C)c4ccc(C(F)(F)F)cc4)c3)cc(=O)[nH]2)cc1OC` (single isomer, unassigned) [Example 60, (R)- or (S)-2-(3,4-dimethoxybenzyl)-6-(1-(1-4-(trifluoromethyl)phenyl)ethyl)-1H-pyrazol-4-yl)pyrimidin-4(3H)-one]: the inhibition constant (Ki) was found to be 3.7 nM under setting [1] and 1.1 nM under setting [2].

As for `COc1ccc(Cc2nc(-c3cnn(C(C)c4ccc(C(F)(F)F)cc4)c3)cc(=O)[nH]2)cc1OC` (single isomer, unassigned) [Example 61, (S)- or (R)-2-(3,4-dimethoxybenzyl)-6-(1-(1-(4-(trifluoromethyl)phenyl)ethyl)-1H-pyrazol-4-yl)pyrimidin-4(3H)-one], the Ki is 2.4 nM under setting [1] and 0.9 nM under setting [2].

Take `Cc1nc(-c2cnn(C(C)c3ccc(S(F)(F)(F)(F)F)cc3)c2)cc(=O)[nH]1` (single isomer, unassigned) [Example 62, (R)- or (S)-2-methyl-6-(1-(1-(4-(pentafluorosulfanyl)phenyl)ethyl)-1H-pyrazol-4-yl)pyrimidin-4(3H)-one]: under setting [2], the Ki is 86.5 nM.

For `Cc1nc(-c2cnn(C(C)c3ccc(S(F)(F)(F)(F)F)cc3)c2)cc(=O)[nH]1` (single isomer, unassigned) [Example 63, (S)- or (R)-2-methyl-6-(1-(1-(4-(pentafluorosulfanyl)phenyl)ethyl)-1H-pyrazol-4-yl)pyrimidin-4(3H)-one], the Ki under setting [2] worked out at 46.5 nM.

In the case of `COc1ccc(Cc2nc(-c3cnn(C(C)c4ccc(S(F)(F)(F)(F)F)cc4)c3)cc(=O)[nH]2)cc1OC` (single isomer, unassigned) [Example 64, (R)- or (S)-2-(3,4-dimethoxybenzyl)-6-(1-(1-(4-(pentafluorosulfanyl)phenyl)ethyl)-1H-pyrazol-4-yl)pyrimidin-4(3H)-one], the Ki is, setting by setting: under setting [1], 7.2 nM; under setting [2], 3.3 nM.

In the case of `COc1ccc(Cc2nc(-c3cnn(C(C)c4ccc(S(F)(F)(F)(F)F)cc4)c3)cc(=O)[nH]2)cc1OC` (single isomer, unassigned) [Example 65, (S)- or (R)-2-(3,4-dimethoxybenzyl)-6-(1-(1-(4-(pentafluorosulfanyl)phenyl)ethyl)-1H-pyrazol-4-yl)pyrimidin-4(3H)-one 4(3H)-one], the Ki under setting [1] worked out at 22 nM and the Ki under setting [2] stood at 8.5 nM.

`COc1ccc(Cc2nc(-c3cnn(C(C)c4ccc(C(F)(F)F)cc4F)c3)cc(=O)[nH]2)cc1OC` (single isomer, unassigned) [Example 66, (R)- or (S)-2-(3,4-dimethoxybenzyl)-6-(1-(1-(2-fluoro-4-(trifluoromethyl)phenyl)ethyl)-1H-pyrazol-4-yl)pyrimidin-4(3H)-one]: the Ki under setting [2] was 0.5 nM.

Regarding `COc1ccc(Cc2nc(-c3cnn(C(C)c4ccc(C(F)(F)F)cc4F)c3)cc(=O)[nH]2)cc1OC` (single isomer, unassigned) [Example 67], the Ki was 0.2 nM under setting [1] and 0.1 nM under setting [2].

As for `Cc1nc(-c2ccn(C(C)c3ccc(C(F)(F)F)cc3)n2)cc(=O)[nH]1` (single isomer, unassigned) [Example 77, (R)- or (S)-2-methyl-6-(1-(1-(4-(trifluoromethyl)phenyl)ethyl)-1H-pyrazol-3-yl)pyrimidin-4(3H)-one], the Ki under setting [2] turned out to be 441 nM.
